The conditions of series [1]: 11 months of storage at room temperature (Example 1: closed glass vial). As for the experimental part:
Powder X-Ray Diffraction:
The measurements are carried out with a Bruker D8 Advance powder X-ray diffractometer using Cu Kα radiation in the Bragg-Brentano reflection geometry. Generally, the 2θ values are accurate within an error of ±0.1-0.2°. The relative peak intensities can vary considerably for different samples of the same crystalline form because of different preferred orientations of the crystals. The samples are prepared without any special treatment other than the application of slight pressure to get a flat surface. Generally, silicon single crystal sample holders of 0.1 mm, 0.5 mm or 1.0 mm depth are used. The tube voltage and current are 40 kV and 40 mA, respectively. The X-ray diffractometer is equipped with a LynxEye detector. A variable divergence slight is used with a 3° window. The step size is 0.02° 2θ with a step time of 37 seconds. The samples are rotated at 0.5 rps during the measurement.

The conditions of series [2]: heating rate 10° C. per minute, dried sample. The procedure: Differential scanning calorimetry: DSC is carried out with a TA Instruments DSC Q2000 using hermetically sealed gold sample pans. The heating rate is 10° C. per minute. Samples are dried under nitrogen before sample pans are closed under nitrogen.
For series [3] the following is noted: after two hours equilibration at 25° C.; resulting pH value 4.6.
Procedure: Solubility Determinations:
Solubility determinations are carried out in pure water at 25±2° C. Suspensions with about 10 mg salt in 0.5 mL water are prepared and equilibrated for two hours before the solution phase is filtered off and tested by HPLC.
HPLC is carried out on an Agilent 1100 HPLC chromatograph equipped with a UV-vis detection unit. […] The column type used is a Waters XTerra MS C18, 250×4.6 mm, 5 μm (FK-CC14). The method as referenced above is an isocratic method using an aqueous ammonium acetate/acetic acid and methanol with a ratio of 55/45. The applied flow rate is 1.0 mL per minute, the injection volume is 20 microliter and the detection wavelength is 321 nm.

The term aqueous solubility denotes the concentration that dissolves in the medium under given conditions. Low values mean a poorly soluble substance, high ones a readily soluble substance.

As for `Cc1nc(Nc2ncc(C(=O)Nc3c(C)cccc3Cl)s2)cc(N2CCN(CCO)CC2)n1.O=C1NS(=O)(=O)c2ccccc21` [Example 1, Dasatinib saccharinate], in series [1], the “crystalline material by powder X-ray diffraction after storage” value is listed as “no crystalline material was present”. Besides, the “glass transition (DSC step)” value in series [2] was roughly 130 °C. Besides, the aqueous solubility in series [3] was 1330 µg/mL.

For the molecule `Cc1nc(Nc2ncc(C(=O)Nc3c(C)cccc3Cl)s2)cc(N2CCN(CCO)CC2)n1.O=C(O)CCCC(=O)O` [Example 2, Dasatinib glutarate], the “crystalline material by powder X-ray diffraction after storage” value in series [1] is “no crystalline material is present”.

As to `Cc1nc(Nc2ncc(C(=O)Nc3c(C)cccc3Cl)s2)cc(N2CCN(CCO)CC2)n1.O=C(O)c1cccnc1` [Example 3, Dasatinib nicotinate], in series [1], the “crystalline material by powder X-ray diffraction after storage” value is recorded as “no crystalline material is present”. `Cc1nc(Nc2ncc(C(=O)Nc3c(C)cccc3Cl)s2)cc(N2CCN(CCO)CC2)n1.O=C1NS(=O)(=O)c2ccccc21` [Example 4, Dasatinib saccharinate]: the “glass transition (DSC step)” value in series [2] was “about 113 °C”.

The values above are taken from patent publication US9884857B2, “Salts of dasatinib in amorphous form” (BASF SE, priority 2013, dated 2018).
